Measurements as given in patent publication US9034857B2 (Health Research, Inc., priority 2010, dated 2015).
Entries after “also recorded” stand apart in the source; their conditions may differ. Read-outs that look alike come from different tables or passages of the source.

Experiments:
[1] = test system: intracellular O2- in stationary phase budding yeast cells; assay: High throughput flow cytometry DHE screen for reduction of superoxide in stationary phase budding yeast; format: cell-based, S. cerevisiae
[2] = test system: interleukin-6 release from human macrophages; assay: Interleukin-6 release from human macrophages; format: cell-based
[3] = test system: O2- in stationary phase cells; assay: Levels of O2- detected by DHE fluorescence in stationary phase cells; format: cell-based, Saccharomyces cerevisiae; settings: for Superoxide anions: Table 2 summary, stationary phase
Protocol: The following materials and methods were used to obtain the data presented in this Example. To assess CLS 50 ml cultures were inoculated with 1% (v/v) of a fresh overnight culture in either SC or YPD. SC was supplemented using known techniques. In experiments that employed media that initially contained 10% glucose, control 2% glucose cultures also contained 8% sorbitol to maintain equivalent osmolarity. Determination of chronological life span, fraction of budded cells, flow cytometry measurements of DNA content and measurements of dihydroethidium (DHE) and dihydrorhodamine 123 (DHR) were used according to standard methods. N-acetylcysteine (NAC) and glutathione (GSH) were dissolved in growth medium, filter sterilized and added to cultures from 100 mM (NAC) or 250 mM (GSH) stocks at the start of experiments. Propidium iodide (PI) was used to assess viability of cells by mixing a 2 μl of cells with an equal volume of 1 mM PI on a microscope slide and examining the slide with a fluorescence microscope equipped with a Texas Red filter. Non-fluorescent cells were scored as intact (live) and fluorescent cells were scored as dead. The total number of cells in cultures was determined by particle counts using a Petroff Hauser counting chamber. Samples for transmission electron microscopy were prepared using standard methods. Briefly, cells cultured at 30° C. in YPD medium for 3 to 5 days were harvested by gentle centrifugation, washed in phosphate buffered saline (PBS) (pH=7.2), resuspended in 2.5% (v/v) glutaraldehyde in PBS and fixed for 40 min at room temperature. Cells were further fixed by 2% freshly prepared potassium permanganate in water for 1 hour at room temperature. Fixed cells were dehydrated with 30%, 50%, 75%, 85%, 95%, and 100% ethanol. Cells were transitioned with propylene oxide, infiltrated in Spurr resin (Electron Microscopy Sciences, PA). Resin was polymerized at 65° C. overnight in the oven. 60 nm ultrathin sections were cut with a diamond knife, stained with 2% uranyl acetate and lead citrate and examined using a Hitachi H-7000 electron microscope, equipped with a 4K×4K cooled CCD digital camera (Gatan, Inc., CA). Values presented in graphs that contain error bars represent means and standard deviations from three or more independent experiments. Other results are representative of at least three independent experiments. Statistical analyses were performed using Student's t-test. P<0.05 was considered statistically significant.

mammalian cells = settings: cited from earlier work
Saccharomyces cerevisiae = assay: Chronological lifespan (CLS) of budding yeast; format: cell-based
budding yeast = settings: cited from earlier work
ribonucleotide reductase = settings: low levels of hydroxyurea; cited from earlier work

Structure (SMILES): O=C(Nc1ccccc1-c1cn2c(CN3CCNCC3)csc2n1)c1cnc2ccccc2n1 [SRT1720, reference compound]
- reducing superoxide anions in S. cerevisiae [1]: reducing superoxide anions
- inhibition of interleukin-6 release [2]: inhibit interleukin-6 release

Structure (SMILES): CC(=O)N[C@@H](CS)C(=O)O [N-acetylcysteine]
- levels of O2- (DHE fluorescence) [3]: absent
- Superoxide anions [3]: ↑
- levels of O2- (DHE fluorescence) ([3]; wild type cells, day 3 of medium depletion, listed as NAC): dose-dependent increases; also recorded: elevate O2- levels
- induction of O2- (mammalian cells): induction of O2-
- chronological lifespan (CLS) (Saccharomyces cerevisiae; sch9Δ cells): not sch9Δ cells
- chronological lifespan (CLS) (Saccharomyces cerevisiae; wild type cells, listed as NAC): shortened CLS in a dose-dependent fashion; also recorded: shorten CLS

Structure (SMILES): N[C@@H](CCC(=O)N[C@@H](CS)C(=O)NCC(=O)O)C(=O)O [GSH, glutathione]
- Superoxide anions [3]: ↓
- levels of O2- (DHE fluorescence) ([3]; wild type cells, day 3 of medium depletion): reduced levels of O2-

Structure (SMILES): Cc1ccc(-c2nn(C(C)(C)C)c3ncnc(N)c23)cc1 [MLS000326642, 1-tert-butyl-3-(4-methylphenyl)pyrazolo[3,4-d]pyrimidin-4-amine]
- dose dependency in re-screening (reduction of superoxide, DHE) [1]: identified by dose dependency; also recorded: exhibited dose dependency
- reducing superoxide anions in S. cerevisiae [1]: reducing superoxide anions
- inhibition of interleukin-6 release [2]: inhibit interleukin-6 release

Structure (SMILES): COC1=C(OC)C(=O)C(C/C=C(\C)CC/C=C(\C)CC/C=C(\C)CC/C=C(\C)CC/C=C(\C)CC/C=C(\C)CC/C=C(\C)CC/C=C(\C)CC/C=C(\C)CCC=C(C)C)=C(C)C1=O [coenzyme Q10]
- pro-oxidant effects (budding yeast): pro-oxidant effects

Structure (SMILES): Cc1c(C)c2c(c(C)c1O)CC[C@@](C)(CCC[C@H](C)CCC[C@H](C)CCCC(C)C)O2 [α-tocopherol]
- pro-oxidant effects (budding yeast): pro-oxidant effects

Structure (SMILES): NC(=O)NO [hydroxyurea]
- shortening of CLS (ribonucleotide reductase): 20-27%

Structure (SMILES): c1ccc2nc3cc4[nH]cnc4cc3nc2c1 [MLS000700045, 1H-imidazo[4,5-b]phenazine]
- reducing superoxide anions in S. cerevisiae [1]: reducing superoxide anions
- dose dependency in re-screening (reduction of superoxide, DHE) ([1]; dose response assays from 0.004 uM to 30 uM, 7 day incubation, 7% glucose): identified by dose dependency; also recorded: exhibited dose dependency
- inhibition of interleukin-6 release [2]: inhibit interleukin-6 release
